Columns and labels:
[1] = tested on: ERα; assay: ERα down-regulation and polyubiquitination in MCF-7 cells; assay type: cell-based, human
Procedure: FIG. 4-5 is a diagram illustrating that the ERAP1-peptide promotes nuclear translocation of PHB2. […] Then, the protein level and the mRNA level for the expression of ERα were obtained by Western blotting (the upper panel: Protein) and semi-quantitative RT-PCR (the lower panel: mRNA), respectively. β-actin is a loading control for each. […] MCF-7 cells were treated with the ERAP1-peptide and/or E2 in the presence of 1 μM MG-132 for 1 hour. Then, the cell lysate was immunoprecipitated with anti-ERα antibody.
Down-regulation of ERα was evaluated by semi-quantitative reverse transcription PCR. Complete RNA was extracted using RNeasy Mini purification kit (Qiagen) from E2-treated cells in the presence or in the absence of the ERAP1 peptide, and reverse-transcribed into cDNA using Superscript II reverse transcriptase (Invitrogen), oligo dT primer (nvitrogen) and 25 mM dNTP Mixture (Invitrogen). mRNAs of ERα and β-actin were measured with GeneAmp PCR system (Applied Biosystems, Foster, Calif., USA). The primers are as described below: […]

[2] = Stability of ERAP1-peptide in MCF-7 cells, immunoblotting; assay type: in vitro ADME, human
Procedure: FIG. 37 is a diagram illustrating the results of evaluations for the stability of the ERAP1-peptide and the influence of the ERAP1-peptide on cellular E2. […] MCF-7 cells were treated with 10 μM HA-tagged ERAP1-peptide. Then, immediately, the cells were temporally stimulated with 10 nM E2. The data are standardized with β-actin, and show the ratio when the value at 1 hour (n=1, 3) or at 3 hours (n=2) is designated as 100. […] MCF-7 cells were treated with 10 μM ERAP1-peptide. Then, immediately, the cells were temporally stimulated with 10 nM E2. The cell lysate was centrifuged, and then the supernatant and a precipitate lysed with methanol were mixed (final concentration of methanol: 10%), and the cellular E2 concentration was measured with a commercially available kit (17β-estradiol ELISA kit, Wako Pure Chemical Industries, Ltd.).

[3] = tested on: ZR75-1 cells; assay: E2-independent cell proliferation, ZR-75-1; assay type: cell-based, human; conditions: 10 μM every 24 hours, at 96 hours
Procedure: FIG. 16 is a diagram illustrating the influence of the ERAP1-peptide on proliferation of E2-independent breast cancer cells. […] Each of the cells was treated with 10 μM ERAP1-peptide for 24 hours (MCF-7), for 48 hours (KPL-3C) or for 96 hours (ZR-75-1 and T47D).
MCF-7 cells or ZR-75-1 cells were seeded in 2×10^4/well, and KPL-3C cells were seeded in 1×10^4/well on a 48-well plate, and stood in a CO2 incubator for 24 hours. Then, for MCF-7 cells, the culture medium was exchanged with DMEM/F12 culture medium containing 10% FBS (Nichirei Biosciences, Tokyo, Japan), 1% antibiotic/antimycotic solution (Invitrogen), 0.1 mM NEAA48 (invitrogen), 1 mM sodium pyruvate and 10 μg/ml insulin (Sigma, St. Louis, Mo., USA) and not containing phenol red, and the cells were further pre-cultured for 24 hours. On the other hand, for ZR-75-1 cells and KPL-3C cells, the culture media were exchanged with RPMI culture media containing 10% FBS and 1% antibiotic/antimycotic solution and not containing phenol red, and the cells were further pre-cultured for 24 hours. The supernatant was removed, and then 200 μl of the ERAP1-peptide in each concentration or tamoxifen as a positive control was added, respectively and the mixture was reacted for 24 hours. […] Then, 100 μl from each well was moved to a 96-well plate, and the absorbance at 450 nm was measured with a microplate reader.

[4] = tested on: ERα complex with PHB2/REA, NcoR, HDAC1, SRC-1; assay: Chromatin remodeling complex, immunoprecipitation of nuclear fraction; assay type: cell-based, human
Procedure: KPL-3C cells temporarily transfected with an ERE-luciferase reporter vector were treated with the ERAP1-peptide in the concentrations shown in the figure. Then, immediately, the cells were stimulated with 10 nM E2 for 24 hours. TAM indicates the tamoxifen treatment. […] KPL-3C cells were treated for 24 hours with the ERAP1-peptide and/or E2. Then, the nuclear fraction was immunoprecipitated with anti-ERα antibody or an anti-PHB2 antibody.
FIG. 4-4 is a diagram illustrating that the ERAP1-peptide promotes nuclear translocation of PHB2. […] MCF-7 cells were treated with the ERAP1-peptide and/or 10 nM E2 for 24 hours. Then, the nuclear fraction was immunoprecipitated with anti-ERα antibody or an anti-PHB2 antibody. […] MCF-7 cells were treated with the ERAP1-peptide and/or E2 for 24 hours. Then, the cell lysate was immunoprecipitated with anti-PHB2 antibody. Subsequently, the HDAC activity in the immunoprecipitate was measured with a commercially available kit. The nuclear extract from the HeLa cells and PBS were used as a positive control (P) and as negative control (N), respectively.
As described in the item of “Western blotting analysis”, the cells were lysed with a 0.1% NP-40 lysis buffer. The cell lysate was precleaned using normal IgG and rec-Protein G Sepharose 4B (Zymed, San Francisco, Calif., USA) at 4° C. for 3 hours. […]

[5] = tested on: MCF-7 cells; assay: E2-independent cell proliferation, MCF-7; assay type: cell-based, human; conditions: 1, 3, 5 and 10 μM, 24 hours
Procedure: FIG. 15 is a diagram illustrating the effects of the ERAP1-peptide on E2-independent cell functions. […] MCF-7 cells were treated with the ERAP1-peptide in each concentration (1, 3, 5 and 10 μM) or 10 nM tamoxifen as a positive control for 24 hours. […] MCF-7 cells were stimulated with 10 μM ERAP1-peptide treatment only, 10 nM E2 treatment only, or 10 μM ERAP1-peptide treatment and immediately 10 nM E2 for 24 hours, and the cytoplasm fraction was isolated from each of the treated cells. Then, the cytoplasm fraction was immunoprecipitated with anti-ERα antibody. Furthermore, with respect to the obtained sample, Western blotting analysis was performed using the antibodies shown in the figure.
MCF-7 cells or ZR-75-1 cells were seeded in 2×10^4/well, and KPL-3C cells were seeded in 1×10^4/well on a 48-well plate, and stood in a CO2 incubator for 24 hours. Then, for MCF-7 cells, the culture medium was exchanged with DMEM/F12 culture medium containing 10% FBS (Nichirei Biosciences, Tokyo, Japan), 1% antibiotic/antimycotic solution (Invitrogen), 0.1 mM NEAA48 (invitrogen), 1 mM sodium pyruvate and 10 μg/ml insulin (Sigma, St. Louis, Mo., USA) and not containing phenol red, and the cells were further pre-cultured for 24 hours. […] Then, 100 μl from each well was moved to a 96-well plate, and the absorbance at 450 nm was measured with a microplate reader.

## CSCC[C@H](NC(=O)[C@H](CCC(N)=O)NC(=O)[C@H](CCCNC(=N)N)NC(=O)[C@H](CCCNC(=N)N)NC(=O)[C@H](CCCNC(=N)N)NC(=O)[C@H](CCCNC(=N)N)NC(=O)[C@H](CCCNC(=N)N)NC(=O)[C@H](CCCNC(=N)N)NC(=O)[C@H](CCCNC(=N)N)NC(=O)[C@H](CCCNC(=N)N)NC(=O)[C@H](CCCNC(=N)N)NC(=O)[C@H](CCCNC(=N)N)NC(=O)[C@@H](N)CCCNC(=N)N)C(=O)N[C@@H](CC(C)C)C(=O)N[C@@H](CO)C(=O)N[C@@H](CC(=O)O)C(=O)N[C@@H](CC(C)C)C(=O)N[C@H](C(=O)N[C@@H](CC(C)C)C(=O)N[C@@H](CCC(N)=O)C(=O)N[C@@H](CC(C)C)C(=O)N[C@@H](CCCNC(=N)N)C(=O)N[C@@H](CCC(N)=O)C(=O)N[C@@H](CCCNC(=N)N)C(=O)O)[C@@H](C)O [ERAP1-peptide]
[1]; MCF-7
  decrease in the protein level of ERα after estrogen: the decrease thereof was suppressed
[1]; MCF-7, E2, in the presence of MG132
  polyubiquitination of ERα: polyubiquitination of ERα was inhibited
[2]; 24 hours after the administration, on average
  residual percentage of the ERAP1-peptide: 84%
[2]; after 30 hours
  residual percentage of the ERAP1-peptide: 56%
[2]; after 36 hours
  residual percentage of the ERAP1-peptide: 58%
[2]; after 48 hours
  residual percentage of the ERAP1-peptide: 54%
[2]; human, in MCF-7 cells
  half-life: ~30 h
[3]
  cell proliferation in the absence of E2: significant cell proliferation suppression effect
[4]; KPL-3C cells
  interaction of ERα with transcription factors: ERα recruited NcoR and HDAC1 to form a complex
[4]; MCF-7 cells
  interaction of ERα with transcription factors: the binding of ERα and SRC-1 decreased, whereas ERα interacted with PHB2/REA, and further recruited NcoR and HDAC1 to form a complex
[5]
  cell proliferation in the absence of E2: dose-dependent cell proliferation suppression effect
